Here are results for five compounds from US20260308222A1, “STABILIZED ANALOGUES OF CALCITONIN” (YISSUM RESEARCH DEVELOPMENT COMPANY OF THE HEBREW …, priority 2024, published 2026).

SMILES strings stand for the structures. Several values for one entry are separate records, joined by “and”; a condition that tells them apart may be missing. Equal values may be shown once. Bridge positions count the residues as written; N and C are the ends. Square brackets hold non-standard residues; d marks the D form. Peptide text beside a SMILES is read from it. Sec = N[C@@H](C[SeH])C(=O)O

The nature of series [1]: Circular dichroism analysis, percent α-helicity. It counts as physicochemical. As to conditions: 10 mM phosphate buffer pH 7, SDS; for % α helicity: 10-30 μM peptide, 2 h folding. The method, then: Following synthesis of the calcitonin analogues, the helicity of the calcitonin analogues was assessed by circular dichroism analysis. Far ultraviolet spectra (FIG. 6) were obtained from 195-260 nm on J-180 spectropolarimeter (Jasco) using 10-30 μM of sCT and all analogues in 10 mM phosphate buffer pH 7 and in the presence of sodium dodecyl sulphate (SDS), which were left for 2 h to allow folding. Each spectrum represents the average of 3 scans, and the mean residue ellipticity (θMRE) was calculated according to the following equation: […]
Percentage helicity of peptides as presented in Table 2 was calculated according to the following equation (Sommese, et al. 2010): […]
where n is the number of amino acids in the peptide.
On the technique in general: Circular dichroism is widely used to follow secondary structure.

The target in series [2] is T1, calcitonin receptor (CTR) (Homo sapiens, UniProt P30988).
T1 sequence (P30988 25-474): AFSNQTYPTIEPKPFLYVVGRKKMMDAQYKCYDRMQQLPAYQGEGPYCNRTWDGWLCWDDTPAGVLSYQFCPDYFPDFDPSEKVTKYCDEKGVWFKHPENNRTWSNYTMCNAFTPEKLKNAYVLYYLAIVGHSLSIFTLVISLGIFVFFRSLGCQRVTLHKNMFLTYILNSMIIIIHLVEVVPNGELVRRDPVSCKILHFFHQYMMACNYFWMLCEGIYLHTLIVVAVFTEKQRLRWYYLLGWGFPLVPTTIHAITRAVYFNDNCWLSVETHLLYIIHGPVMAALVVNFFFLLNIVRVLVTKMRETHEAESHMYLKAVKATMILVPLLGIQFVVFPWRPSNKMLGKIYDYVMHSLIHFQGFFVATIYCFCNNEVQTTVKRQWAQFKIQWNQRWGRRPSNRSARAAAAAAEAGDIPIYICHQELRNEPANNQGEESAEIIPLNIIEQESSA
Briefly: cAMP accumulation assay, U2OS Red cAMPNomad-CALCR cell line. The class given is cell-based. Further details: expressed in transfected cells; host or cells: U2OS Red cAMPNomad-CALCR. As to conditions: U2OS Red cAMPNomad-CALCR cells; for EC50: overnight incubation.

In series [3] the target is T1, calcitonin receptor (CTR). As to the kind of experiment: Ca^2+ concentration assay, HEK293 CALCR-HiTSeeker cell line. Also noted: expressed in transfected cells. As to conditions: HEK293 CALCR-HiTSeeker cells. The class given is cell-based.
The nature of series [4]: Degradation in simulated gastric fluid (SGF). It counts as in vitro ADME. As to conditions: for half-life: simulated gastric fluid, pH 1.3, pepsin 0.2 mg/mL stock, read-out: SGF t1/2. The method, then: sCT and its analogues were evaluated for their degradation in simulated gastric fluid (SGF). The stock solution of each analogue was prepared by dissolving 2 mg of the peptide in 1 mL water. The stock solution of pepsin enzyme was prepared by dissolving 5 mg of pepsin in 5 mL of 10 mM HCl (1 mg/mL), and then was diluted to a 0.2 mg/mL with 10 mM HCl. 7 For degradation, 34 μL of pepsin (0.2 mg/mL) was added to 100 μL of peptide (2 mg/mL) at pH 1.3 and the reaction incubated at 37° C. To monitor the degradation, 10 μL of the reaction aliquots were taken and quenched with 10 μL of 10 mM NaOH every 30 min for several hours and analyzed by HPLC using XSelect C18 column ([…], 130 A, 4.6×150 mm) with a gradient of 5-70% of 0.1% TFA in MeCN over 20 min with monitoring at 220 nm.

Series [5] is described as follows: Degradation in simulated intestinal fluid (SIF).

As a reminder, the EC50 is the concentration needed to bring the measured effect to its halfway point. On to `CC(C)C[C@H](NC(=O)[C@H](CCCCN)NC(=O)CNC(=O)[C@H](CC(C)C)NC(=O)[C@@H](NC(=O)[C@@H]1CSCSC[C@H](N)C(=O)N[C@@H](CO)C(=O)N[C@@H](CC(N)=O)C(=O)N[C@@H](CC(C)C)C(=O)N[C@@H](CO)C(=O)N[C@@H]([C@@H](C)O)C(=O)N1)C(C)C)C(=O)N[C@@H](CO)C(=O)N[C@@H](CCC(N)=O)C(=O)N[C@@H](CCC(=O)O)C(=O)N[C@@H](CC(C)C)C(=O)N[C@@H](Cc1c[nH]cn1)C(=O)N[C@@H](CCCCN)C(=O)N[C@@H](CC(C)C)C(=O)N[C@@H](CCC(N)=O)C(=O)N[C@H](C(=O)N[C@@H](Cc1ccc(O)cc1)C(=O)N1CCC[C@H]1C(=O)N[C@@H](CCCNC(=N)N)C(=O)N[C@H](C(=O)N[C@@H](CC(N)=O)C(=O)N[C@H](C(=O)NCC(=O)N[C@@H](CO)C(=O)NCC(=O)N[C@H](C(=O)N1CCC[C@H]1C(N)=O)[C@@H](C)O)[C@@H](C)O)[C@@H](C)O)[C@@H](C)O` [MT-CT], for which the “helicity retained following cyclization” value in series [1] is listed as “retain the high degree of helicity”. The “% α helicity” value in series [1] is on record as 98.5%. Also, the EC50 was 1.67 ± 0.06 µM in series [2] (read-out: cAMP EC50), above 1 µM in series [2] (read-out: cAMP EC50 (bound)), 7.3 ± 0.7 µM in series [3] (read-out: Ca^2+ EC50) and above 1 µM in series [3] (read-out: Ca^2+ EC50 (bound)). Moreover, the half-life in series [4] (pH 1.3, 37 °C) was 33.5 ± 0.2 min.
As to `CC(C)C[C@@H]1NC(=O)[C@@H](NC(=O)CNC(=O)[C@H](CC(C)C)NC(=O)[C@@H](NC(=O)[C@@H]2CSSC[C@H](N)C(=O)N[C@@H](CO)C(=O)N[C@@H](CC(N)=O)C(=O)N[C@@H](CC(C)C)C(=O)N[C@@H](CO)C(=O)N[C@@H]([C@@H](C)O)C(=O)N2)C(C)C)CCCCNCc2cc(ccc2O)C[C@@H](C(=O)N2CCC[C@H]2C(=O)N[C@@H](CCC(N)=O)C(=O)N[C@H](C(=O)N[C@@H](CC(N)=O)C(=O)N[C@H](C(=O)NCC(=O)N[C@@H](CO)C(=O)NCC(=O)N[C@H](C(=O)N2CCC[C@H]2C(N)=O)[C@@H](C)O)[C@@H](C)O)[C@@H](C)O)NC(=O)[C@H]([C@@H](C)O)NC(=O)[C@H](CCC(N)=O)NC(=O)[C@H](CC(C)C)NC(=O)[C@H](CCCCN)NC(=O)[C@H](Cc2c[nH]cn2)NC(=O)[C@H](CC(C)C)NC(=O)[C@H](CCC(=O)O)NC(=O)[C@H](CCC(N)=O)NC(=O)[C@H](CO)NC1=O` [KaY-1(R24Q)], the EC50 in series [2] (read-out: cAMP EC50) is 0.00267 µM and 0.0027 µM; in series [3] (read-out: Ca^2+ EC50) it was 0.216 ± 0.0438 µM. Moreover, the “SIF t1/2” value in series [5] (pancreatin 2 mg/mL stock, pH 6.8, 37 °C) is on record as 41.9 ± 6.1 min. Further, in series [5] (pancreatin, pH 6.8, 37 °C, vs sCT), the “stability in SIF compared to sCT” value is “six-fold enhancement in stability compared to sCT”. The half-life in series [5] (simulated intestinal fluid, pH 6.8, SIF t1/2, pancreatin 2 mg/mL stock, pH 6.8, 37 °C) is 42 min; in series [4] (pH 1.3, 37 °C), 170 min. The “improvement in stability in simulated gastric fluid” value in series [5] (vs sCT, second figure of sentence) is 6 fold. Also, the “SGF t1/2” value in series [4] (pepsin 0.2 mg/mL stock, pH 1.3, 37 °C) was 170.6 ± 32.2 min. In addition, in series [4] (pepsin, pH 1.3, 37 °C, vs sCT), the “half-life in SGF relative to sCT” value was “five-fold longer half-life”. Besides, in series [4] (vs sCT, first figure of sentence), the “improvement in stability in simulated gastric fluid over sCT” value is 5 fold.
With `CC(C)C[C@H](NC(=O)[C@H](CCCCN)NC(=O)CNC(=O)[C@H](CC(C)C)NC(=O)[C@@H](NC(=O)[C@@H]1CSSC[C@H](N)C(=O)N[C@@H](CO)C(=O)N[C@@H](CC(N)=O)C(=O)N[C@@H](CC(C)C)C(=O)N[C@@H](CO)C(=O)N[C@@H]([C@@H](C)O)C(=O)N1)C(C)C)C(=O)N[C@@H](CO)C(=O)N[C@@H](CCC(N)=O)C(=O)N[C@H]1CCC(=O)NCCCC[C@@H](C(=O)N[C@@H](CC(C)C)C(=O)N[C@@H](CCC(N)=O)C(=O)N[C@H](C(=O)N[C@@H](Cc2ccc(O)cc2)C(=O)N2CCC[C@H]2C(=O)N[C@@H](CCCNC(=N)N)C(=O)N[C@H](C(=O)N[C@@H](CC(N)=O)C(=O)N[C@H](C(=O)NCC(=O)N[C@@H](CO)C(=O)NCC(=O)N[C@H](C(=O)N2CCC[C@H]2C(N)=O)[C@@H](C)O)[C@@H](C)O)[C@@H](C)O)[C@@H](C)O)NC(=O)[C@H](Cc2c[nH]cn2)NC(=O)[C@H](CC(C)C)NC1=O` [CT(E15-K18)], in series [1], the “% α helicity” value turned out to be 62.9%. Moreover, in series [4] (pH 1.3, 37 °C), the half-life was 47.3 ± 1.9 min.
As for `CC(C)C[C@H](NC(=O)[C@H](CCCCN)NC(=O)CNC(=O)[C@H](CC(C)C)NC(=O)[C@@H](NC(=O)[C@@H]1C[Se][Se]C[C@H](N)C(=O)N[C@@H](CO)C(=O)N[C@@H](CC(N)=O)C(=O)N[C@@H](CC(C)C)C(=O)N[C@@H](CO)C(=O)N[C@@H]([C@@H](C)O)C(=O)N1)C(C)C)C(=O)N[C@@H](CO)C(=O)N[C@@H](CCC(N)=O)C(=O)N[C@@H](CCC(=O)O)C(=O)N[C@@H](CC(C)C)C(=O)N[C@@H](Cc1c[nH]cn1)C(=O)N[C@@H](CCCCN)C(=O)N[C@@H](CC(C)C)C(=O)N[C@@H](CCC(N)=O)C(=O)N[C@H](C(=O)N[C@@H](Cc1ccc(O)cc1)C(=O)N1CCC[C@H]1C(=O)N[C@@H](CCCNC(=N)N)C(=O)N[C@H](C(=O)N[C@@H](CC(N)=O)C(=O)N[C@H](C(=O)NCC(=O)N[C@@H](CO)C(=O)NCC(=O)N[C@H](C(=O)N1CCC[C@H]1C(N)=O)[C@@H](C)O)[C@@H](C)O)[C@@H](C)O)[C@@H](C)O` [Se-CT] (H-[Sec]SNLST[Sec]VLGKLSQELHKLQTYPRTNTGSGTP-NH2; diselenide 1-7), in series [1], the “helicity retained following cyclization” value is “retain the high degree of helicity”. Also, the “% α helicity” value in series [1] was determined as 99.2%. Besides, the “cAMP EC50 / potency” value in series [2] was “EC50 in the nanomolar range”. In addition, the results for the EC50 in series [2] (read-out: cAMP EC50) and in series [3] (read-out: Ca^2+ EC50) were 0.0827 ± 0.0165 µM and 0.113 ± 0.0183 µM, respectively. For the same compound, the half-life in series [4] (pH 1.3, 37 °C) is 32.6 ± 0.5 min.
`CC(C)C[C@H](NC(=O)[C@H](CCCCN)NC(=O)CNC(=O)[C@H](CC(C)C)NC(=O)[C@@H](NC(=O)[C@@H]1CSSC[C@H](N)C(=O)N[C@@H](CO)C(=O)N[C@@H](CC(N)=O)C(=O)N[C@@H](CC(C)C)C(=O)N[C@@H](CO)C(=O)N[C@@H]([C@@H](C)O)C(=O)N1)C(C)C)C(=O)N[C@@H](CO)C(=O)N[C@@H](CCC(N)=O)C(=O)N[C@@H](CCC(=O)O)C(=O)N[C@@H](CC(C)C)C(=O)N[C@@H](Cc1c[nH]cn1)C(=O)N[C@H]1CCCCNCc2cc(ccc2O)C[C@@H](C(=O)N2CCC[C@H]2C(=O)N[C@@H](CCCNC(=N)N)C(=O)N[C@H](C(=O)N[C@@H](CC(N)=O)C(=O)N[C@H](C(=O)NCC(=O)N[C@@H](CO)C(=O)NCC(=O)N[C@H](C(=O)N2CCC[C@H]2C(N)=O)[C@@H](C)O)[C@@H](C)O)[C@@H](C)O)NC(=O)[C@H]([C@@H](C)O)NC(=O)[C@H](CCC(N)=O)NC(=O)[C@H](CC(C)C)NC1=O` [KaY-2]: the “% α helicity” value in series [1] is recorded as 56.2%. Also, in series [4] (pH 1.3, 37 °C), the half-life was 34.5 ± 0.3 min.
